Like-named read-outs stand apart in the source and are kept apart here. Blank lines part the entries; values can stand above or below the compound they belong to.
Columns and labels:
JNK1 [1] = target: T1, JNK1 (Homo sapiens, UniProt P45983); parameters: method as in PMID 27027242, PMID 11717429, PMID 16759099, PMID 21666839; settings: Figure 1; ref [25],[32],[33],[34]; cited from earlier work
T1 construct: purchased Eurofins Pharma Discovery (KINOMEscan)

JNK3 [2] = target: T2, JNK3 (Homo sapiens, UniProt P53779); parameters: method as in PMID 27027242, PMID 11717429, PMID 16759099, PMID 21666839; settings: Figure 1; ref [25],[32],[33],[34]; cited from earlier work
T2 construct: purchased Eurofins Pharma Discovery (KINOMEscan)

phospho-c-Jun (Ser63) = test: LPS-induced c-Jun (Ser63) phosphorylation in MonoMac-6 cells (Western blotting); format: cell-based, human; settings: 30 min pretreatment, LPS 250 ng/mL 30 min
Experimental: MonoMac-6 monocytic cells were pretreated with different concentrations of the compounds under investigation for 30 min and treated with LPS (250 ng/mL) or vehicle for another 30 min. Cells were washed twice with Hanks’ balanced salt solution, and cell lysates were prepared using lysis buffer from the JNK kinase assay kit (Cell Signaling Technology, Danvers, MA). Cell lysates (from 5 × 10^6 cells) were separated on ExpressPlus 4–20% PAGE Gels (GenScript, Piscataway, NJ, USA) using TRIS-MOPS running buffer (GenScript) and transferred to nitrocellulose membranes. The blots were probed with antibodies against c-Jun, phospho-c-Jun (Ser63), and total c-Jun (Cell Signaling Technology, Danvers, MA, USA), followed by horseradish peroxidase-conjugated secondary antibody (Cell Signaling Technology). The blots were developed using SuperSignal West Femto chemiluminescent substrate (Thermo Fisher Scientific) and visualized with a FluorChem FC2 imaging system (Alpha Innotech Corporation, San Leandro, CA, USA). Quantitation of the chemiluminescent signal was performed using AlphaView software (ver. 3.0; Alpha Innotech).

JNK3 [3] = target: T2, JNK3; test: KINOMEscan Kd determination, JNK3; settings: duplicate, mean, N.B. = no binding at < 30 μM
Experimental: (§1) Selected compounds were submitted for dissociation constant (Kd) determination using KINOMEscan (Eurofins Pharma Discovery, San Diego, CA, USA), as described previously. […] Primary screening at fixed concentrations of compounds was performed in duplicate.

IL-6 [4] = test: LPS-induced IL-6 production in MonoMac-6 cells (ELISA); format: cell-based; settings: Homo sapiens, MONO-MAC-6; 30 min pretreatment, 250 ng/mL LPS for 24 h; read-out: MonoMac-6 Cell IL-6 IC50
Experimental: (§2) All cells were cultured at 37 °C in a humidified atmosphere containing 5% CO2. THP1-Blue cells obtained from InvivoGen (San Diego, CA, USA) were cultured in RPMI 1640 medium (Mediatech Inc., Herndon, VA, USA) supplemented with 10% (v/v) fetal bovine serum (FBS), 100 μg/mL streptomycin, 100 U/mL penicillin, 100 μg/mL phleomycin (Zeocin), and 10 μg/mL blasticidin S. Human monocyte-macrophage MonoMac-6 cells (Deutsche Sammlung von Mikroorganismen und Zellkulturen GmbH, Braunschweig, Germany) were grown in RPMI 1640 medium supplemented with 10% (v/v) FBS, 10 μg/mL bovine insulin, 100 μg/mL streptomycin, and 100 U/mL penicillin.
A human IL-6 ELISA kit (BD Biosciences, San Jose, CA, USA) was measure IL-6 production. MonoMac-6 cells were plated in 96-well plates at a density of 2 × 10^5 cells/well in culture medium supplemented with 3% (v/v) endotoxin-free FBS. The cells were pretreated with test compound or DMSO for 30 min, followed by addition of 250 ng/mL LPS for 24 h. IC50 values for IL-6 production were calculated by plotting percentage inhibition against the logarithm of inhibitor concentration (at least five points).

NF-κB/AP-1 = test: LPS-induced NF-κB/AP-1 alkaline phosphatase reporter assay in THP1-Blue cells; format: cell-based; settings: Homo sapiens; 30 min pretreatment, 250 ng/mL LPS for 24 h; read-out: THP-1Blue Cell NF-κB/AP-1 IC50
Experimental: as §2
Activation of AP-1/NF-κB was measured using an alkaline phosphatase reporter gene assay in THP1-Blue cells. Human monocytic THP-1 Blue cells are stably transfected with a secreted embryonic alkaline phosphatase gene that is under the control of a promoter inducible by NF-κB/AP-1. THP1-Blue cells (2 × 10^5 cells/well) were pretreated with test compound or DMSO for 30 min, followed by addition of 250 ng/mL lipopolysaccharide (LPS) for 24 h, and alkaline phosphatase activity was measured in cell supernatants using QUANTI-Blue mix (InvivoGen) as absorbance at 655 nm and compared with positive control samples (LPS). For selected compounds, the concentrations of inhibitor that caused 50% inhibition of the NF-κB reporter activity (IC50) were calculated.

JNK2 = target: T3, JNK2 (Homo sapiens, UniProt P45984); test: KINOMEscan Kd determination, JNK2; settings: duplicate, mean, N.B. = no binding at < 30 μM
T3 construct: purchased Eurofins Pharma Discovery (KINOMEscan)
Experimental: as §1

[5] = CellTiter-Glo cytotoxicity in THP-1Blue cells; format: cell-based, human; settings: human, THP-1Blue cells; 24-h incubation, up to 50 μM; read-out: THP-1Blue Cell Cytotoxicity IC50
Experimental: as §2
(§3) Cytotoxicity was analyzed with a CellTiter-Glo Luminescent Cell Viability Assay Kit from Promega (Madison, WI, USA), according to the manufacturer’s protocol. Cells were treated with compounds under investigation and incubated for 24 h. After treatment, the cells were equilibrated to room temperature for 30 min, substrate was added, and the samples were analyzed with a Fluoroscan Ascent FL (Thermo Fisher Scientific, Waltham, MA, USA). The IC50 values were calculated by plotting percentage inhibition against the logarithm of inhibitor concentration (at least five points).

JNK1-3 [6] = test: KINOMEscan binding, statements for all three JNK isoforms; settings: summary of Table 3
Experimental: as §1

JNK1 [7] = target: T1, JNK1; test: KINOMEscan Kd determination, JNK1; settings: duplicate, mean, N.B. = no binding at < 30 μM
Experimental: as §1

[8] = CellTiter-Glo cytotoxicity in MonoMac-6 cells; format: cell-based, human; settings: human, MonoMac-6 cells; 24-h incubation, up to 50 μM; read-out: MonoMac-6 Cell Cytotoxicity IC50
Experimental: as §2, §3

Water solubility = format: physicochemical
IL-6 [9] = tested on: IL-6; parameters: method as in PMID 22434859; settings: LPS-induced; ref [35]; read-out: MonoMac-6 Cell IL-6 IC50; cited from earlier work
JNK1-3 [10] = tested on: JNK1-3; parameters: method as in PMID 27027242, PMID 11717429, PMID 16759099, PMID 21666839; settings: Figure 1; ref [25],[32],[33],[34]; cited from earlier work

T1 sequence (P45983 whole entry): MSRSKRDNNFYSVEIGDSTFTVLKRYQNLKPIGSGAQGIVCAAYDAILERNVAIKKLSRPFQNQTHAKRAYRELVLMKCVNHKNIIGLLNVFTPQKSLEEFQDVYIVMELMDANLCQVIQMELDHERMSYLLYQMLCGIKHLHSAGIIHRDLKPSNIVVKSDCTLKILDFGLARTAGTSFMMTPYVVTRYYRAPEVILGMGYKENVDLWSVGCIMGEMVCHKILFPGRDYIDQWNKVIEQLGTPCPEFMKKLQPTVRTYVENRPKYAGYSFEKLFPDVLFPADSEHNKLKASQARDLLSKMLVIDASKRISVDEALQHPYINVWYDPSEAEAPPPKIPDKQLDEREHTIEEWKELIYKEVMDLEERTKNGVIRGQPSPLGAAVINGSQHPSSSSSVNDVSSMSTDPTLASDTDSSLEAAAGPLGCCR
T2 sequence (P53779 whole entry): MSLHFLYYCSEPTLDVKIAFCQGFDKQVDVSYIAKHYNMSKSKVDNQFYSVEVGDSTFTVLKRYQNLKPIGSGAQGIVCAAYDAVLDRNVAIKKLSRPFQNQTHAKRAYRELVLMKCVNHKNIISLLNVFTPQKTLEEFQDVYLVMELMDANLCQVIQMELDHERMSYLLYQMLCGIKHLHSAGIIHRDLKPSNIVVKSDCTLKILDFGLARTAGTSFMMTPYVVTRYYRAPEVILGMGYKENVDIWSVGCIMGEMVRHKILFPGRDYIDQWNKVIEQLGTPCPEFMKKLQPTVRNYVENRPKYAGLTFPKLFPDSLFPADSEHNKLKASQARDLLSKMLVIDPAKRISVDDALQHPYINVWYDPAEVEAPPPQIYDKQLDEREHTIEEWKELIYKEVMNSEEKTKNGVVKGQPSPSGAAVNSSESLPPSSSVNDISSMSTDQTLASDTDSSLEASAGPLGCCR
T3 sequence (P45984 whole entry): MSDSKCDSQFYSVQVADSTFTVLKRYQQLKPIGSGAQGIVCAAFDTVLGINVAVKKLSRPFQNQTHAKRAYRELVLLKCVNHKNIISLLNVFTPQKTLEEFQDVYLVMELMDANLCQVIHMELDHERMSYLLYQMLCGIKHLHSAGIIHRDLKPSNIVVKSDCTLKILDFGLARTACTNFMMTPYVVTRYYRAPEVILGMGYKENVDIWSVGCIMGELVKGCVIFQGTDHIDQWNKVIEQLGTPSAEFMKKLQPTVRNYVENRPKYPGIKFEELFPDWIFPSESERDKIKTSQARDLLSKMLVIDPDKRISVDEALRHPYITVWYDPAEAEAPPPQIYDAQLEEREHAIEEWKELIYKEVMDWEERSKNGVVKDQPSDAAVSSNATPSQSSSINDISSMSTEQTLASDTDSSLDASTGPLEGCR

Compound: Cc1ccc(-c2ncn(-c3ccc(Nc4nccc(-c5cccc(N6CCOCC6)c5)n4)cc3)n2)cn1 [SR-3306]
IC50 (JNK1 [1]): 159 nM | IC50 (JNK3 [2]): 67 nM

Kd (JNK3 [3]): 910 ± 300 nM | IC50 (IL-6 [4]): 800 ± 100 nM | melting point: 210 to 211 °C | IC50 (NF-κB/AP-1): 100 ± 50 nM | Kd (JNK2): 880 ± 100 nM | Binding affinity (Kd) for all three JNK isoforms, in words (JNK1-3 [6]): relatively high binding affinity | Kd (JNK1 [7]): 1100 ± 100 nM | Water solubility (Water solubility): high water solubility
Compound: ON=C1c2ccccc2-c2nc3c(CN4CCOCC4)cccc3nc21 [Compound 4m, 6-(Morpholinomethyl)-11H-indeno[1,2-b]quinoxalin-11-one Oxime]
Effect on LPS-induced c-Jun (Ser63) phosphorylation (phospho-c-Jun (Ser63)): inhibited c-Jun phosphorylation | IC50 at 24 h [5]: > 50000 nM | IC50 at 24 h [8]: > 50000 nM

Compound: ON=C1c2ccccc2-c2nc3ccccc3nc21 [IQ-1, 11H-indeno[1,2-b]quinoxalin-11-one oxime]
IC50 (IL-6 [9]): 3400 ± 800 nM

Compound: SP600125
IC50 (JNK1-3 [10]): 40 to 90 nM

Source: PMC8464905, “Novel c-Jun N-Terminal Kinase (JNK) Inhibitors with an 11H-Indeno[1,2-b]quinoxalin-11-one Scaffold” (Molecules, 2021)
